Assay results from US20150031656A1, “COMBINATION THERAPY FOR TREATING ANDROGEN DEFICIENCY” (REPROS THERAPEUTICS INC., priority 2012, published 2015).
Values joined by “and” are separate entries in the source; they are usually repeats but may differ in a detail not shown here. Identical values can stand only once. Counter-ions that a name gives are not always drawn. Like-named read-outs stand apart in the source and are kept apart here.

Assays:
serum cholesterol = conditions: baboons, 1.5 mg/kg for 12 days
total serum testosterone = conditions: for effect on total serum testosterone (in words): baboons; for effect on total serum testosterone (in words) / Serum Testosterone Levels, 12 days, group mean: 1.5 mg/kg for 12 days; for Serum Testosterone Levels, 6 days / Serum Testosterone Levels, 12 days / Serum Testosterone Levels, wash-out / Serum Testosterone Levels, baseline / Serum Testosterone Levels, 0 day: individual baboon; for Serum Testosterone Levels, 6 days / Serum Testosterone Levels, 6 days, group mean: 1.5 mg/kg daily, day 6; for Serum Testosterone Levels, 6 days / Serum Testosterone Levels, 12 days: 1.5 mg/kg; for Serum Testosterone Levels, 12 days: 1.5 mg/kg for 12 consecutive days; for Serum Testosterone Levels, 12 days / Serum Testosterone Levels, 12 days, group mean: day 12; for Serum Testosterone Levels, wash-out / Serum Testosterone Levels, wash-out, group mean: 7 days after the last treatment; for Serum Testosterone Levels, baseline: baseline Dec. 3, 2001, before treatment; for Serum Testosterone Levels, 0 day / Serum Testosterone Levels, 0 day, group mean: day 0, before first dose; for Serum Testosterone Levels, 6 days, group mean / Serum Testosterone Levels, 12 days, group mean / Serum Testosterone Levels, wash-out, group mean / Serum Testosterone Levels, baseline, group mean / Serum Testosterone Levels, 0 day, group mean: mean of 3 baboons; for Serum Testosterone Levels, baseline, group mean: before treatment
Description: (§4) The samples analyzed were sera taken on the day of first treatment before being given test article (day 0), after 12 days of treatment (day 12) and 7 days after the last treatment (end or wash-out).

serum prolactin (PRL) = test: Serum prolactin in male baboons; conditions: 1.5 mg/kg for 12 days
Description: as §4

testosterone = conditions: for 24 hr T <300 ng/dl @ Week 6 / Any T >1100 ng/dl @ Week 6: number of men
Description: Sixty men with testosterone levels not exceeding 350 ng/dl were enrolled in the study and randomized to one of four parallel arms: (i) 6.25 mg Androxal (ii) 12.5 mg Androxal (iii) 25 mg Androxal or (iv) Androgel. The average age of men in the study was 53.1 (10.1) and their average body mass index (BMI) was 31.8 (6.1). The men were dosed for 6 weeks and then followed for an additional 7 days after cessation of treatment. Subjects in all arms visited the clinic every 2 weeks for assessments. Twenty-four hour assessments were made at baseline before dosing commenced and after 6 weeks of treatment, at which point testosterone and LH were assessed hourly.

serum FSH = test: Androxal vs Androgel in hypogonadal men: serum FSH; type: in vivo, human; conditions: two weeks treatment and follow-up
Description: (§1) Half of the men in each of the Androxal™ and placebo arms were randomized into cohorts that underwent in-clinic sessions on days 1 and 14 to determine pharmacokinetic parameters for Androxal™ as well as cyclical changes in testosterone. The placebo and Androxal™ doses were administered in a double blind fashion. […] Following the two week drug exposure patients were followed for an additional seven to ten days to determine the status of their testosterone levels.

[1] = system: serum dihydroxytestosterone (DHT); test: Androxal vs Androgel in hypogonadal men: DHT to total testosterone ratio; type: in vivo, human; conditions: men on Androxal 50 mg; placebo group ratio 1.07
Description: as §1

morning testosterone = test: Androxal vs Testim, three month placebo-controlled trial: morning testosterone; type: in vivo, human; conditions: for Median Morning Testosterone, Baseline T: before dosing; for Median Morning Testosterone, Baseline T / Median Morning Testosterone, Final T: no unit in table; for Median Morning Testosterone, Final T: end of three month dosing
Description: (§2) Over 900 men were screened to achieve a total of 108 men who met all criteria and were enrolled in the study. All 108 men enrolled in the study satisfied the requirement of at least one dose and one visit in which efficacy measures could be assessed. The subjects were randomized into four groups: (i) placebo; (ii) 12.5 mg Androxal; (iii) 25 mg Androxal; and (iv) Testim. There was no statistical difference among the groups in testosterone at baseline.

serum testosterone = test: Androxal vs Testim, 6 month spermatogenesis trial: serum testosterone; type: in vivo, human; conditions: after 3 months of treatment, sustained for another 3 months
Description: (§3) The mean age of the subjects was 46 years and mean body weight was 233 pounds. […] Subjects were required to discontinue topical exogenous testosterone for at least 30 days prior to receiving study medication. Effects of the treatment on sperm parameters associated with fertility as well as on FSH and LH levels were evaluated following 3 and 6 months of therapy and one month after cessation of treatment. Semen analysis included semen volume, total sperm count, sperm concentration, percent motility and percent normal morphology. There were 6 laboratory visits including a screening (V1), baseline (V2) and post first dose visits at 1 month (V3), 3 months (V4) and 6 months (V5) as well as a one month post therapy follow-up visit (V6).

LH and FSH = test: Androxal vs Testim, 6 month spermatogenesis trial: LH and FSH; type: in vivo, human; conditions: secondary hypogonadal men, 3 and 6 months of therapy
Description: as §3

total testosterone = test: Placebo controlled study of Androxal vs Androgel in hypogonadal men: testosterone; type: in vivo, human; conditions: for mean increase in testosterone from baseline: oral, two weeks
Description: as §1

serum LH = test: Androxal vs Androgel in hypogonadal men: serum LH; type: in vivo, human
Description: as §1

sperm counts = test: Androxal vs Testim, three month trial: sperm counts; type: in vivo, human
Description: as §2
Sperm counts were assessed at baseline and after dosing was completed. Spermatogenesis is approximately a 64 day cycle and detection of early changes after 3 months of treatment would be expected. At baseline, the median values of all four arms were above the generally accepted lower level of sperm counts for normal males (20 million sperm per ml). […] The median sperm count for the men in the combined Androxal arms was 93.8 million sperm/ml (p value=0.001 compared to Testim). […] No drug related serious adverse effects occurred that led to discontinuation.

[2] = Androxal vs Testim, 6 month spermatogenesis trial: tolerability; type: in vivo, human; conditions: 6 months of drug therapy
Description: as §3

[3] = Androxal vs Testim, three month trial: tolerability; type: in vivo, human; conditions: both doses (12.5 and 25 mg), three months
Description: as §2

triglycerides = test: Androxal vs Androgel in hypogonadal men: triglycerides; type: in vivo, human; conditions: men on Androxal, non-dose dependent, after two weeks of therapy
Description: as §1

[4] = Androxal vs Androgel in hypogonadal men: side effects; conditions: two week exposure
Description: as §1

[5] = three month dosing, Androxal arms combined, Testim arm

## CCN(CC)CCOc1ccc(/C(=C(\Cl)c2ccccc2)c2ccccc2)cc1 [Zuclomid, cis-Clomid]
Serum cholesterol
  increase in serum cholesterol levels: 22%
Total serum testosterone
  effect on total serum testosterone (in words): did not raise total serum testosterone to any extent
  Serum Testosterone Levels, 6 days: 137.51 ng/dL and 169.98 ng/dL and 227.95 ng/dL
  Serum Testosterone Levels, 12 days: 314.5 ng/dL and 406.1 ng/dL and 353.0 ng/dL
  Serum Testosterone Levels, wash-out: 359.7 ng/dL and 860.5 ng/dL and 274.1 ng/dL
  Serum Testosterone Levels, baseline: 124.84 ng/dL and 104.66 ng/dL and 282.29 ng/dL
  Serum Testosterone Levels, 0 day: 210.4 ng/dL and 67.37 ng/dL and 904.82 ng/dL
  Serum Testosterone Levels, 6 days, group mean: 178.5 ng/dL
  Serum Testosterone Levels, 12 days, group mean: 357.9 ng/dL
  Serum Testosterone Levels, wash-out, group mean: 498.1 ng/dL
  Serum Testosterone Levels, baseline, group mean: 170.6 ng/dL
  Serum Testosterone Levels, 0 day, group mean: 394.2 ng/dL
baboons, 1.5 mg/kg for 12 days
  hematocrit: demonstrated a statistical difference
  red blood cell population: substantive effects on the red blood cell population
  serum glucose: within the normal range
baboons, day 12
  serum carbon dioxide: higher than reference values
baboons, following treatment
  serum alkaline phosphatase (ALP): not elevated
baboons, over the treatment period / end of the study
  ALT/SGPT: within the normal range

## CCN(CC)CCOc1ccc(/C(=C(/Cl)c2ccccc2)c2ccccc2)cc1 [Enclomid, trans-Clomid]
Serum prolactin (PRL)
  serum prolactin (PRL) during the study: decrease in serum prolactin (PRL)
Serum cholesterol
  decrease in serum cholesterol levels: 8%
Total serum testosterone
  effect on total serum testosterone (in words): significantly and statistically raised total serum testosterone on days 6 and 12
  Serum Testosterone Levels, 6 days: 1223.8 ng/dL and 1128.2 ng/dL and 1081.1 ng/dL
  Serum Testosterone Levels, 12 days: 633.6 ng/dL and 1466 ng/dL and 1166 ng/dL
  Serum Testosterone Levels, wash-out: 307.2 ng/dL and 399.2 ng/dL and 271 ng/dL
  Serum Testosterone Levels, baseline: 64.57 ng/dL and 166.86 ng/dL and 170.45 ng/dL
  Serum Testosterone Levels, 0 day: 74.96 ng/dL and 133.59 ng/dL and 106.47 ng/dL
  Serum Testosterone Levels, 6 days, group mean: 1144.4 ng/dL
  Serum Testosterone Levels, 12 days, group mean: 1088.5 ng/dL
  Serum Testosterone Levels, wash-out, group mean: 325.8 ng/dL
  Serum Testosterone Levels, baseline, group mean: 134.0 ng/dL
  Serum Testosterone Levels, 0 day, group mean: 105.0 ng/dL
In vivo
  ALT/SGPT: within the normal range
  BUN and BUN/creatinine: altered during the study
  per cent of granulocytes in the blood: lowering the per cent of granulocytes in the blood
  platelet count: pushed the platelet count to its normal male level
  serum alkaline phosphatase (ALP): decreased in value
  serum anion gap: raised this parameter towards normal values
In vivo, 1.5 mg/kg
  lymphocyte count and per cent lymphocytes: Both the count and per cent lymphocytes in the population increase
  red blood cell population: substantive effects on the red blood cell population
  serum glucose: no increases with treatment

## CCN(CC)CCOc1ccc(C(=C(Cl)c2ccccc2)c2ccccc2)cc1 [Clomid, clomiphene citrate]
Serum cholesterol
  effect on serum cholesterol levels (in words): slight increase
Total serum testosterone
  effect on total serum testosterone (in words): more variable total testosterone levels on day 6 and later
  Serum Testosterone Levels, 6 days, group mean: 559.3 ng/dL
  Serum Testosterone Levels, 12 days, group mean: 588.7 ng/dL
  Serum Testosterone Levels, wash-out, group mean: 203.6 ng/dL
  Serum Testosterone Levels, baseline, group mean: 111.5 ng/dL
  Serum Testosterone Levels, 0 day, group mean: 161.4 ng/dL
Total serum testosterone; listed as CLO
  Serum Testosterone Levels, 6 days: 940.97 ng/dL and 585.92 ng/dL and 151.12 ng/dL
  Serum Testosterone Levels, 12 days: 891.5 ng/dL and 555.6 ng/dL and 318.9 ng/dL
  Serum Testosterone Levels, wash-out: 150.9 ng/dL and 316.3 ng/dL and 143.6 ng/dL
  Serum Testosterone Levels, baseline: 79.01 ng/dL and 97.55 ng/dL and 158.06 ng/dL
  Serum Testosterone Levels, 0 day: 76.15 ng/dL and 305.24 ng/dL and 102.94 ng/dL
In vivo
  ALT/SGPT: out of range low at the end of the study
  BUN and BUN/creatinine: altered during the study
  serum carbon dioxide: higher than reference values
In vivo, 1.5 mg/kg
  serum glucose: within the normal range

## CCN(CC)CCOc1ccc(/C(=C(\Cl)c2ccccc2)c2ccccc2)cc1 [Androxal™, trans-clomiphene]
testosterone; Androxal 6.25 mg
  24 hr T <300 ng/dl @ Week 6: 4 out of 12
  Any T >1100 ng/dl @ Week 6: 0 out of 12
testosterone; Androxal 12.5 mg
  24 hr T <300 ng/dl @ Week 6: 2 out of 10
  Any T >1100 ng/dl @ Week 6: 0 out of 10
testosterone; Androxal 25 mg
  24 hr T <300 ng/dl @ Week 6: 0 out of 13
  Any T >1100 ng/dl @ Week 6: 0 out of 13
testosterone; all Androxal arms (6.25, 12.5, 25 mg)
  morning testosterone after the seven day follow-up (in words): improved morning testosterone compared to baseline
Serum FSH
  serum levels of FSH: boosts serum FSH which remains high during the follow-up period
[1]
  DHT/TT ratio: 0.83
Morning testosterone; Androxal 12.5 mg (n = 26), text uses ng/dl
  Median Morning Testosterone, Baseline T: 202
Morning testosterone; Androxal 12.5 mg (n = 26)
  Median Morning Testosterone, Final T: 432
Morning testosterone; Androxal 25 mg (n = 30)
  Median Morning Testosterone, Baseline T: 202
  Median Morning Testosterone, Final T: 416
Morning testosterone; [5]
  men exceeding the normal maximum level of testosterone (1100 ng/dl): no men
  men in the normal range for morning testosterone levels (300-1100 ng/dl): 69.9%
Serum testosterone
  mean serum testosterone: statistically significant rise
LH and FSH
  LH and FSH levels: significantly increased both LH and FSH
Total testosterone; 7-10 days after cessation of daily oral treatment
  serum total testosterone in the follow-up period: unexpectedly remained high
Total testosterone; hypogonadal men, Androxal 50 mg, after 15 days
  mean total testosterone: 589 ± 172 ng/dL
Total testosterone; hypogonadal men, Androxal high dose (50 mg)
  mean increase in testosterone from baseline: 294 ng/dL
Total testosterone; hypogonadal men, Androxal low dose (12.5 mg)
  mean increase in testosterone from baseline: 169 ng/dL
Total testosterone; hypogonadal men, Androxal mid dose (25 mg)
  mean increase in testosterone from baseline: 247 ng/dL
Serum LH; 7-10 days after cessation of treatment
  serum LH in the follow-up period: remained high
Serum LH; hypogonadal men, two weeks treatment
  serum levels of LH during treatment: statistically significant increase
Sperm counts; end of the three month dosing period
  change in sperm counts from baseline (in words): no statistically significant changes
Sperm counts; end of three month dosing, Androxal arms combined, Testim arm
  median sperm count: 93.8 million sperm/ml
[2]
  tolerability: well tolerated by all subjects
[3]
  tolerability compared to placebo: generally well tolerated
triglycerides
  reduction in triglycerides, average: 19.1%
[4]
  side effects different than placebo: no side effects noted
